Results reported in patent US20160011208A1, “ASSAY FOR POLYPEPTIDE AGGREGATION USING MICRODROPLETS” (priority 2013, published 2016).

Biological target: T1, Aβ1-42 (Homo sapiens, UniProt P05067)
T1 construct: Scyllo-inositol and amyloid monomers (Aβ1-42) were compartmentalised in droplets
Assay: Inhibition of Aβ1-42 aggregation in microdroplet gel beads, flow cytometric analysis
Type: biochemical
Conditions: HF488Aβ1-42 with scyllo-inositol in droplets, amyloid:inhibitor ratios 1:1 or 1:20, versus control without inhibitor; flow cytometry (FIG. 12)
Procedure: FIG. 12: Inhibition of aggregation by scyllo-inositol. Scyllo-inositol and amyloid monomers (Aβ1-42) were compartmentalised in droplets and incubated at ratios of amyloid:inhibitor of 1:1 (central bar at each time point) or 1:20 (right-hand bar at each time point), respectively. The left-hand bar at each time point represents a control with no scyllo-inositol.
A microfluidic droplet generator with a flow focusing geometry was used to generate water-in-oil droplets. The contents of the droplets were determined by the content of the supply stream: peptide buffer solution was mixed with agarose gel solution and trapped by HFE7500 oil containing a surfactant, e.g. 0.5% (w/w) fluorous tri-block copolymers. […]
Since the processed gel beads were stored in aqueous buffer solution, they could be tested via flow cytometry or FACS, a technique requiring aqueous carrier fluid, in order to assess the aggregation process and compare different intensity of aggregates inside agarose beads. Incubated and washed agarose beads with Hilyte488-labelled Aβ1-40 aggregates were sent to FACS and the beads with fluorescent aggregates were counted. […] The percentage of beads containing aggregates was calculated using the program Summit. […]

T1 sequence (P05067 672-713 limits assumed): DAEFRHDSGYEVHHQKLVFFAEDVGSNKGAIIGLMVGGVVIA

## O[C@H]1[C@H](O)[C@@H](O)[C@H](O)[C@@H](O)[C@@H]1O [scyllo-inositol]
  inhibition of aggregation of Aβ1-42 monomers in gel beads: inhibition of aggregation by scyllo-inositol was detected
